Assay results from patent US20120276064A1, “METHODS AND COMPOSITIONS FOR REJUVENATION AND EXPANSION OF STEM CELLS” (priority 2011, published 2012).

Tested on: functional MuSCs
Experiment: Limiting dilution analysis and model prediction of functional MuSCs
Set-up: species or system mouse
Description: Limiting dilution analysis and model prediction. To calculate the effective number of functional MuSCs in any transplanted cell population, the transplant engraftment efficiency was related to the number of cells transplanted (across a range of transplanted cell numbers) using an exponential stem-cell limiting dilution model:
% engraftment=100%·[1-exp [(βsample)·(# cells transplantedsample)] [eqn. 1]
where β is an exponential coefficient fit from experimental data. This model fit well to experimental data from a variety of cell conditions (R^2=0.89-1.00; see FIG. 16C). Using this model, the number of functional MuSCs (e.g. defined as equivalent to freshly isolated young MuSCs) within any given population can be calculated:
# Functional MuSCssample=(βSample/βYng,Fresh)˜(# cellssample). [eqn. 2]
The number of functional MuSCs arising from the progeny of each MuSC initially seeded in the cell culture experiments can be predicted by taking into account the measured cell proliferation in culture (see FIG. 2D). The transplant engraftment percentage of the cell culture progeny from any starting MuSC cell number can be predicted using the measured cell proliferation data and the fit exponential model parameter β:
Predicted % engraftment=100%·[1-exp [(βsample)·(starting cell #)·(proliferation fold-changesample)]]. [Eqn. 3]

SMILES: Oc1ccc(-c2nc(-c3ccncc3)c(-c3ccc(F)cc3)[nH]2)cc1 [SB202190]
- Proportion of functional MuSCs (old MuSCs on soft hydrogels with SB treatment, limiting dilution model): 9%
- Predicted transplant engraftment of the culture progeny of 10 old MuSCs (old MuSCs treated with SB, model prediction): 76%
- Increase in absolute number of functional stem cells relative to freshly isolated old MuSCs (old MuSCs, soft hydrogel + SB, one week, mathematical modeling): 7 fold
- Improvement in the proportion of functional MuSCs (old MuSCs, soft hydrogel with vs without SB, limiting dilution model): 10 fold
